Experimental findings from paper PMC7617978, “Anti-trypanosomal quinazolines targeting lysyl-tRNA synthetases show partial efficacy in a mouse model of acute Chagas disease” (Science translational medicine, 2025) are described below.

The subject of series [1] is T. cruzi (Tulahuen strain) intracellular amastigote (in L6 cells). Description: Drug sensitivity assay, T. cruzi (Tulahuen)-infected L6 rat skeletal myoblasts. In kind it is cell-based. The conditions noted are these: Trypanosoma cruzi. The procedure:
T. cruzi epimastigotes of the Silvio strain (MHOM/BR/78/Silvio; clone X10/7A) were maintained at 28°C in RPMI 1640 medium (Merck) supplemented with trypticase peptone (4.9 mg/ml), HEPES (20 mM), haemin (20 μg/ml), and foetal bovine serum (FBS, 10%), as previously described ([29]). T. cruzi metacyclic trypomastigotes were obtained and maintained, as previously described ([29]). Briefly, late-log epimastigotes were seeded at 10^6 cells/ml in RTH/FBS and differentiated into trypomastigotes after 7 days at 28°C. Vero cells were infected with trypomastigotes for 12 hours in Dulbecco modified Eagle medium (DMEM) supplemented with 5% FBS, at 37°C in the presence of 5% CO2. Infected Vero cells were washed 3× with DMEM/FBS to remove extracellular parasites, and medium was replaced every two days until trypomastigotes re-emerged. Three rounds of infection were performed before trypomastigotes were harvested for drug sensitivity assays. For drug sensitivity assays carried out at the Swiss Tropical Institute, a T. cruzi cell line (Tulahuen C2C4) expressing the β-galactosidase gene LacZ was propagated in L6 rat skeletal myoblasts (ATCC CRL-1458) as previously described ([37]).
Drug sensitivity assays with T. cruzi (Tulahuen)-infected L6 rat skeletal myoblasts were carried out as previously described ([37]).

Series [2] deals with HepG2. The experiment in a line: Drug sensitivity assay, HepG2 cells. Format: cell-based. As for the experimental part:
Human HepG2 cells (ECACC 85011430) were cultivated at 37°C in minimal essential medium (MEM) supplemented with GlutaMax (1×, Thermo Fisher), 10% (v/v) fetal bovine serum (FBS), MEM non-essential amino acids (1×, Sigma) and in the presence of 5% CO2, as previously described ([29]). Cells were passaged twice weekly through detachment of adherent cells with trypsin/EDTA (Sigma) and subsequent dilution into fresh medium.
The relative potency of test compounds against T. cruzi epimastigotes ([29]), T. b. brucei bloodstream forms ([41]), T. b. rhodesiense bloodstream forms ([42]), L. donovani promastigotes ([43]) and Hep G2 cells ([29]) were established as previously described. The potency of test compounds on intracellular T. cruzi (Sylvio, X10/7A1) were determined in 96-well plates as previously described ([29]).

Series [3] concerns the target TcKRS1 (Trypanosoma cruzi, UniProt Q4D7V3). The experiment in a line: TcKRS1 inhibition assay using BIOMOL Green. In kind it is biochemical. The conditions noted are these: for IC50: recombinant TcKRS1, 14 μM ATP, 400 μM L-lysine, read-out: IC50 values (95% CI). As for the experimental part:
For TcKRS1 (TcCLB.508971.30), synthetic DNA codon-optimized for expression in E. coli and encoding amino acid residues 54–580 of the TcKRS1 protein was synthesized by Genscript and subcloned into a modified pET15b vector, with an N-terminal 6×His tag and a Tobacco Etch Virus (TEV) cleavage site. The resulting plasmid was transformed into E. coli BL21(DE3) (Stratagene) for expression. A 10-ml starter culture was grown at 37°C overnight, then used to inoculate 1 L of LB Autoinduction media that was grown for 48 h at 20°C. Cell pellets were resuspended in buffer containing 25 mM Tris, 500 mM NaCl, 20 mM imidazole, pH 8.5, and lysed using a continuous flow cell disrupter (Constant Systems). Recombinant TcKRS1 was purified using Ni^2+ affinity chromatography, the 6×His tag cleaved using TEV protease and the tag and protease removed by a second Ni^2+ affinity chromatography step. The protein was further purified via size exclusion chromatography, where TcKRS1 eluted with a mass consistent with the protein forming a dimer. Purified recombinant protein were concentrated to ~1 mg/ml in buffer (25 mM Tris, 150 mM NaCl, 10 % glycerol, pH 7.5) for assay.
The enzymatic activity of recombinant KRS was determined by monitoring the concentration of pyrophosphate released during the first step of the reaction catalyzed by recombinant TcKRS1. The pyrophosphate formed was converted to two inorganic phosphate molecules using a pyrophosphatase enzyme and concentrations of the resulting phosphate were measured using the BIOMOL Green reagent (Enzo Life Sciences). All screening assays were performed in 384-well, clear, flat-bottom plates (Greiner) at room temperature (~23°C) in 50 μl reaction volumes.
To generate IC50 data for test compounds, 10-point inhibitor dose-response curves were prepared in 384-well assay plates using an ECHO 550 acoustic dispenser (Labcyte). Following preparation of the inhibitor curves, assays were carried out for recombinant KRS enzymes as follows: TcKRS1 assay wells contained rTcKRS1 assay buffer (100 mM Tris; […]; HsKRS reactions contained HsKRS assay buffer (30 mM Tris; […].
All assays were performed by adding 25 μl of assay buffer with enzyme to compound-containing assay wells before the reaction was initiated with the addition of a 25 μl substrate mixture containing L-lysine, ATP and pyrophosphatase. […] Following a 6–h reaction at room temperature, the assays were stopped by the addition of 50 μl BIOMOL Green. The BIOMOL Green signal was allowed to develop for 30 min before the absorbance of each well was read at 650 nm using a PheraStar plate reader (BMG). All liquid-dispensing steps were carried out using a Thermo Scientific WellMate dispenser (Matrix).

The test system of series [4] is T. b. rhodesiense. Description: Drug sensitivity assay, T. b. rhodesiense bloodstream forms. In kind it is cell-based. The conditions noted are these: Trypanosoma brucei, read-out: EC50 value.
The target in series [5] is CYP1A2 (Homo sapiens, UniProt P05177). Description: In vitro CYP inhibition, 1A2. Format: in vitro ADME. As for the experimental part: (§1) Compounds were screened for CYP inhibition activity using the protocol established by TCG Lifesciences (India). The activity of five CYP450 isoforms: 1A2; 2C9; 2D6, 3A4; and 2C19 was monitored in the presence of test or control (miconazole) compounds at 10 µM. Reactions were terminated after 10 min (30 min for CYP2C19) by the addition of acetonitrile, centrifuged and analysed via LC-MS/MS. […]

Series [6] deals with CYP2C19 (Homo sapiens, UniProt P33261). Description: In vitro CYP inhibition, 2C19. Format: in vitro ADME. The procedure:
as §1

Series [7] is described as follows: Metabolic stability in mouse liver microsomes. In kind it is in vitro ADME. The conditions noted are these: 1 µM, NADPH. The procedure: The metabolic stability of key compounds was assessed using the protocol established by TCG
Lifesciences (India). Briefly, mouse liver microsomes (MLM) were incubated with test
compounds or controls (atenolol, propranolol, diclofenac and verapamil) at 1 µM. Reactions
were initiated by the addition of NADPH and terminated by the addition of acetonitrile. […]

The EC50 is the midpoint of the concentration-response curve. Usually IC50 stands for the midpoint of a concentration-inhibition curve. What is called inhibition is the share of the control response that was lost under treatment. Low readings indicate a response near the control, high ones a response far below the control.

Read-outs that look alike come from different tables or passages of the source.

Chain of TcKRS1 (Q4D7V3 entry or part of it): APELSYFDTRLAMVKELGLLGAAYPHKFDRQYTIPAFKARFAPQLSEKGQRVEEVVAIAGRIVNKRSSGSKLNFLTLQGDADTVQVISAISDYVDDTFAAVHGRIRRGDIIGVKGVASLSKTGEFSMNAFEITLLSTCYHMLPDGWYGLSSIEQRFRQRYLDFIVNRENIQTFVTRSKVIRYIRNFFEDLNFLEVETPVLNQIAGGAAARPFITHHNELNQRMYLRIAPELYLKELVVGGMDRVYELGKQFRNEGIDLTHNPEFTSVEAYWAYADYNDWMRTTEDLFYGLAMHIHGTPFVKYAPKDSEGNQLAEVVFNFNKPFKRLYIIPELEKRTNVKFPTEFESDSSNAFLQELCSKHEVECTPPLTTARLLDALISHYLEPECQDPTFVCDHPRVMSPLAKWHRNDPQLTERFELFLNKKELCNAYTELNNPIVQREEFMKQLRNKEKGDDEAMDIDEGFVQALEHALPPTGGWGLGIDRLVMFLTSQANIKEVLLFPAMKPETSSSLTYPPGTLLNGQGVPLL
Chain of CYP2C19 (P33261 whole entry, species assumed): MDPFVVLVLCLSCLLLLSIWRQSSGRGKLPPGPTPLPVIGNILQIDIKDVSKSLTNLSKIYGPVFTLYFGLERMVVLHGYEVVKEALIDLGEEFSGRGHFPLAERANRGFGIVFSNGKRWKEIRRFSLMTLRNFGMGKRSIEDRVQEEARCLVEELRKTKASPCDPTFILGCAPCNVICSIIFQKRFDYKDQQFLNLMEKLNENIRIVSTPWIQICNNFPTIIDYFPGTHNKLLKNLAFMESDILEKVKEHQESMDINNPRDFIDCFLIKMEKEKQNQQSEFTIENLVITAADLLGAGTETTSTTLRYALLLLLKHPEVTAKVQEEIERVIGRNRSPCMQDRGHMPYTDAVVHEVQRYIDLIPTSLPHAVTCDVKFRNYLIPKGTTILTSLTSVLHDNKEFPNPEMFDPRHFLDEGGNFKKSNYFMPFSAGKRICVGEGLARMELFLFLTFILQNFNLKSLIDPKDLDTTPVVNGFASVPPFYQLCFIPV
Chain of CYP1A2 (P05177 whole entry, canonical isoform): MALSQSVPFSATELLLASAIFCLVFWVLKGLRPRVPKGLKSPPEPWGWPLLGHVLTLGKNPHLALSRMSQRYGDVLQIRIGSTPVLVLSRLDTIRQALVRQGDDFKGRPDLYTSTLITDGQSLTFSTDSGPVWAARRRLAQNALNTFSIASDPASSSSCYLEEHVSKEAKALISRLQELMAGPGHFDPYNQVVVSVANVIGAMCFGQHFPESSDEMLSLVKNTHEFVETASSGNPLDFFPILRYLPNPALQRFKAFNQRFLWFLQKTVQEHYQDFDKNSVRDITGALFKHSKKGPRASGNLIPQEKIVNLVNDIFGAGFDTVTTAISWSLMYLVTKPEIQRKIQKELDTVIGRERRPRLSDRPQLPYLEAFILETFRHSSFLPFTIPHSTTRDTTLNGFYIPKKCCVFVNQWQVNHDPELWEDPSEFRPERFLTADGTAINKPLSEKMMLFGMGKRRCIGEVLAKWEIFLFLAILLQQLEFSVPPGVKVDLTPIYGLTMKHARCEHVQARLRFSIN

Turning to `Cc1nc(N)c2c(F)c(F)c(SC3CCCCC3)c(F)c2n1` [DMU759, 7-(Cyclohexylthio)-5,6,8-trifluoro-2-methylquinazolin-4-amine], the half-maximal effective concentration (EC50) was determined as 0.018 ± 0.007 µM in series [1] (WT Tulahuen strain, intracellular amastigote in L6 cells, read-out: EC50 value); 16.9 ± 5.38 µM in series [2] (Homo sapiens, HepG2; read-out: EC50 value); 0.313 ± 0.183 µM in series [4] (WT, BSF). For the same compound, in series [3], the “extent of inhibition of TcKRS1” value was “full inhibition”. Also, the concentration for half-maximal inhibition (IC50) in series [3] was determined as 0.015 µM. In series [5], the inhibition at 10 min, 10 µM amounted to 61.5 ± 0.9%. Moreover, the inhibition at 30 min, 10 µM in series [6] came to 12.8 ± 2.8%. In series [7], the “Mouse liver microsome stability” value is more than 500 µL/min/mg.

For `Cc1nc(N)c2c(F)c(F)c(NC3CCCC3)c(F)c2n1` [DMU371, N7-Cyclopentyl-5,6,8-trifluoro-2-methylquinazoline-4,7-diamine], the concentration for a half-maximal effect (EC50) turned out to be 0.233 ± 0.086 µM in series [1] (TULAHUEN, L6, read-out: EC50 value); 5.82 ± 0.5 µM in series [2] (Homo sapiens, HepG2, read-out: EC50 value); 1.09 ± 0.42 µM in series [4]. In series [3], the “extent of inhibition of TcKRS1” value is recorded as “full inhibition”. In addition, in series [3], the IC50 turned out to be 0.185 µM. Also, the inhibition at 10 min, 10 µM in series [5] turned out to be 74.8 ± 0.5%. Further, the inhibition at 30 min, 10 µM in series [6] was 6.1 ± 1.3%. The “Mouse liver microsome stability” value in series [7] was more than 500 µL/min/mg.
